Measurements reported in patent US20160311914A1, “USE OF B LYMPHOCYTE STIMULATOR PROTEIN ANTAGONISTS TO PROMOTE TRANSPLANTATION TOLERANCE” (The Trustees of the University of Pennsylvania, priority 2009, published 2016).

Assays:
[1] = tested on: Streptozotocin-treated diabetic B6 mice transplanted with BALB/c islets; assay: Islet allograft survival, BALB/c islets transplanted into Streptozotocin-treated diabetic B6 mice; type: in vivo, mouse; conditions: FIG. 3
Experimental: (§1) FIG. 1 is a timeline detailing the administration of anti-B Lymphocyte Stimulator (anti-BLys™) antibodies and Rapamycin in Streptozotocin-treated diabetic mice transplanted with islets from another mouse strain.
FIG. 3 is a graph illustrating the percent survival (y-axis) versus time in days (x-axis) for Streptozotocin-treated diabetic B6 mice transplanted with BALB/c islets. Mice were administered Rapamycin (Rapa) (-□-); anti-B Lymphocyte Stimulator (anti-BLys™) antibodies and Rapamycin (anti-BLys™/Rapa) (-Δ-); or neither (no treatment; control) (-⋄-) in accordance with the timeline set forth in FIG. 1.
(§2) BLyS™ regulates mature B-lymphocyte survival and negative selection at the transitional to follicular (TR:FO) tolerance checkpoint. To determine the effect of BLyS™ in an in vivo allograft model, murine islet cells from B6 and BALB/c donor mice were transplanted into Streptozotocin-treated diabetic BALB/c and B6 mice, respectively. The recipient mice were treated with a regimen consisting of a B-lymphocyte depleting dose of a neutralizing anti-BLyS™ mAb (100 μg) on days 10 and 1 post-transplantation, followed by a weekly maintenance taper (50 μg×2 wks, 25 μg×2 wks, 10 μg×2 wks, and 5 μg×2 wks). Starting on the day of islet transplantation, the Streptozotocin treated diabetic recipients were treated with 0.5 mg/kg Rapamycin every other day for two weeks.

[2] = tested on: Streptozotocin-treated diabetic BALB/c mice transplanted with B6 islets; assay: Islet allograft survival, B6 islets transplanted into Streptozotocin-treated diabetic BALB/c mice; type: in vivo, mouse; conditions: FIG. 2
Experimental: as §1
FIG. 2 is a graph illustrating the percent survival (y-axis) versus time in days (x-axis) for Streptozotocin-treated diabetic BALB/c mice transplanted with B6 islets. Mice were administered Rapamycin (Rapa) (-□-); anti-B Lymphocyte Stimulator (anti-BLys™) antibodies and Rapamycin (anti-BLys™/Rapa) (-Δ-); or neither (no treatment; control) (-⋄-) in accordance with the timeline set forth in FIG. 1.
as §2

CO[C@H]1C[C@@H]2CC[C@@H](C)[C@@](O)(O2)C(=O)C(=O)N2CCCC[C@H]2C(=O)O[C@H]([C@H](C)C[C@@H]2CC[C@@H](O)[C@H](OC)C2)CC(=O)[C@H](C)/C=C(\C)[C@@H](O)[C@@H](OC)C(=O)[C@H](C)C[C@H](C)/C=C/C=C/C=C/1C [Rapamycin]
mean survival time (MST) [1]: 39 days | mean survival time (MST) [2]: 61 days
